Experimental findings from BindingDB's records for patent US20240270732 (Chengdu Biobel Biotechnology Co., 2024) are described below.

In the assay the target is T1, Receptor-interacting serine/threonine-protein kinase 1 (Homo sapiens, UniProt Q13546).
T1 sequence (Q13546 whole entry): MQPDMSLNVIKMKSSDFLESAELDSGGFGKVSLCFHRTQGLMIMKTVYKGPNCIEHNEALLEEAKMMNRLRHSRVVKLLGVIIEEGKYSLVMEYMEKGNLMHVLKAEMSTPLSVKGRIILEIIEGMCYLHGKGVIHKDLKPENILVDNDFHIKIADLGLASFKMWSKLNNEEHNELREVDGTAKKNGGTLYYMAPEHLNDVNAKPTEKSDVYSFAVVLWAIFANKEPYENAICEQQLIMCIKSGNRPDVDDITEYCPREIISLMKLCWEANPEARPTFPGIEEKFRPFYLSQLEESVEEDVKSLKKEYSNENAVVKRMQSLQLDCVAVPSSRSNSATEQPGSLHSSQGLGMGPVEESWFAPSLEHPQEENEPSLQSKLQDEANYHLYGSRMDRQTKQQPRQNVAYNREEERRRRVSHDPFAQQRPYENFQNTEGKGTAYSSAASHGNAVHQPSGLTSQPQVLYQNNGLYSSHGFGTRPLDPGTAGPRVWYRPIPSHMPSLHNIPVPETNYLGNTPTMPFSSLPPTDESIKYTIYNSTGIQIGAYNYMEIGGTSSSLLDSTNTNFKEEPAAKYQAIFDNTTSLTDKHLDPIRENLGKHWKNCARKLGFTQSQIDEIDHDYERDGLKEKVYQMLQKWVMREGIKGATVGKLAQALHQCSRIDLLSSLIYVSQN
Nature of the assay: Inhibitory Activity Assay. On the procedure: The compound of the present invention and the control compound were dissolved in the assay buffer (50 mM Hepes pH 7.5, 50 mM NaCl, 30 mM MgCl2, 1 mM DTT, 0.02% CHAPS, 0.5 mg/mL BSA), and diluted in a ratio of 1:1.5 using a 22-point titration (high concentration 2 μM), and then added to a 384-well plate. […] After completion of the reaction, 5 μL of ADP-Glo reagent containing 0.02% CHAPS was added to each well and incubated at room temperature for 1 h to terminate the kinase reaction and use up all remaining ATP. Then, 5 μL of ADP-Glo detection solution containing 0.02% CHAPS was added to each well and incubated at room temperature for 30 min to measure the emittance intensity.
`CN1C(=O)[C@@H](NC(=O)c2cn(Cc3ccccc3)cn2)COc2ccc(C#CCN3CCN(CC#Cc4ccc5c(c4)N(C)C(=O)[C@@H](NC(=O)c4ncn(Cc6ccccc6)n4)CO5)CC3)cc21` [US20240270732, Compound I-34] yielded an IC50 of 4.68 nM. To `C#CCN1CCN(CC#Cc2ccc3c(c2)N(C)C(=O)[C@@H](NC(=O)c2ncn(Cc4ccccc4)n2)[C@@H](C)O3)CC1` [US20240270732, Compound I-37] belongs 4.17 nM; to `O=C(N[C@H]1COc2ccc(C#CCN3CCN(CC#Cc4ccc5c(c4)NC(=O)[C@@H](NC(=O)c4ncn(Cc6ccccc6)n4)CO5)CC3)cc2NC1=O)c1ncn(Cc2ccccc2)n1` [US20240270732, Compound I-42], 5.03 nM; to `C#CCN1CCN(CC#Cc2ccc3c(c2)N(C)C(=O)[C@@H](NC(=O)c2ncc(Cc4ccccc4)o2)[C@@H](C)O3)CC1` [US20240270732, Compound I-43], 12.7 nM. In turn, `C[C@H]1Oc2ccc(C#CCN3CCN(CC#Cc4ccc5c(c4)N(C)C(=O)[C@@H](NC(=O)c4ncc(Cc6ccccc6)o4)[C@@H](C)O5)CC3)cc2N(C)C(=O)[C@H]1NC(=O)c1ncc(Cc2ccccc2)o1` [US20240270732, Compound I-44] displayed an IC50 of 14.9 nM. To `C#CCN1CCN(CC#Cc2ccc3c(c2)N(C)C(=O)[C@@H](NC(=O)c2cc(Cc4ccccc4)on2)[C@@H](C)O3)CC1` [US20240270732, Compound I-45] belongs 14.2 nM.

`C[C@H]1Oc2ccc(C#CCN3CCN(CC#Cc4ccc5c(c4)N(C)C(=O)[C@@H](NC(=O)c4cc(Cc6ccccc6)on4)[C@@H](C)O5)CC3)cc2N(C)C(=O)[C@H]1NC(=O)c1cc(Cc2ccccc2)on1` [US20240270732, Compound I-46] registered an IC50 of 10.8 nM. To `C#CCN1CCN(CC#Cc2ccc3c(c2)N(C)C(=O)[C@@H](NC(=O)c2cnn(Cc4ccccc4)c2)[C@@H](C)O3)CC1` [US20240270732, Compound I-47] belongs 13.6 nM; to `C[C@H]1Oc2ccc(C#CCN3CCN(CC#Cc4ccc5c(c4)N(C)C(=O)[C@@H](NC(=O)c4cnn(Cc6ccccc6)c4)[C@@H](C)O5)CC3)cc2N(C)C(=O)[C@H]1NC(=O)c1cnn(Cc2ccccc2)c1` [US20240270732, Compound I-48], 13.3 nM; to `C#CCN1CCN(CC#Cc2ccc3c(c2)N(C)C(=O)[C@@H](NC(=O)c2nnc(Cc4ccccc4)o2)[C@@H](C)O3)CC1` [US20240270732, Compound I-49], 16.2 nM. To `C[C@H]1Oc2ccc(C#CCN3CCN(CC#Cc4ccc5c(c4)N(C)C(=O)[C@@H](NC(=O)c4nnc(Cc6ccccc6)o4)[C@@H](C)O5)CC3)cc2N(C)C(=O)[C@H]1NC(=O)c1nnc(Cc2ccccc2)o1` [US20240270732, Compound I-50] belongs 14.3 nM; to `C#CCN1CCN(CC#Cc2ccc3c(c2)N(C)C(=O)[C@@H](NC(=O)c2noc(Cc4ccccc4)n2)[C@@H](C)O3)CC1` [US20240270732, Compound I-51], 15.9 nM; to `C[C@H]1Oc2ccc(C#CCN3CCN(CC#Cc4ccc5c(c4)N(C)C(=O)[C@@H](NC(=O)c4noc(Cc6ccccc6)n4)[C@@H](C)O5)CC3)cc2N(C)C(=O)[C@H]1NC(=O)c1noc(Cc2ccccc2)n1` [US20240270732, Compound I-52], 13.3 nM. The figure for `C#CCN1CCN(CC#Cc2ccc3c(c2)N(C)C(=O)[C@@H](NC(=O)c2cn(Cc4ccccc4)nn2)[C@@H](C)O3)CC1` [US20240270732, Compound I-53] is 15.1 nM. `C[C@H]1Oc2ccc(C#CCN3CCN(CC#Cc4ccc5c(c4)N(C)C(=O)[C@@H](NC(=O)c4cn(Cc6ccccc6)nn4)[C@@H](C)O5)CC3)cc2N(C)C(=O)[C@H]1NC(=O)c1cn(Cc2ccccc2)nn1` [US20240270732, Compound I-54] displayed an IC50 of 14.7 nM. To `C#CCN1CCN(CC#Cc2ccc3c(c2)N(C)C(=O)[C@@H](NC(=O)c2nnn(Cc4ccccc4)n2)[C@@H](C)O3)CC1` [US20240270732, Compound I-55] belongs 8.91 nM. For the molecule `C[C@H]1Oc2ccc(C#CCN3CCN(CC#Cc4ccc5c(c4)N(C)C(=O)[C@@H](NC(=O)c4nnn(Cc6ccccc6)n4)[C@@H](C)O5)CC3)cc2N(C)C(=O)[C@H]1NC(=O)c1nnn(Cc2ccccc2)n1` [US20240270732, Compound I-56], the 50% inhibitory concentration (IC50) was determined as 7.44 nM. To `C#CCN1CCN(CC#Cc2ccc3c(c2)N(C)C(=O)[C@@H](NC(=O)c2nnn(Cc4ccccc4)n2)CO3)CC1` [US20240270732, Compound I-57] belongs 8.09 nM; to `CN1C(=O)[C@@H](NC(=O)c2nnn(Cc3ccccc3)n2)COc2ccc(C#CCN3CCN(CC#Cc4ccc5c(c4)N(C)C(=O)[C@@H](NC(=O)c4nnn(Cc6ccccc6)n4)CO5)CC3)cc21` [US20240270732, Compound I-58], 6.16 nM. The figure for `C#CCN1CCN(CC#Cc2ccc3c(c2)N(C)C(=O)[C@@H](NC(=O)c2cn(Cc4ccccc4)cn2)[C@@H](C)O3)CC1` [US20240270732, Compound I-59] is 10.2 nM; for `C[C@H]1Oc2ccc(C#CCN3CCN(CC#Cc4ccc5c(c4)N(C)C(=O)[C@@H](NC(=O)c4cn(Cc6ccccc6)cn4)[C@@H](C)O5)CC3)cc2N(C)C(=O)[C@H]1NC(=O)c1cn(Cc2ccccc2)cn1` [US20240270732, Compound I-60] it is 9.91 nM; for `C#CCN1CCN(CC#Cc2ccc3c(c2)N(C)C(=O)[C@@H](NC(=O)c2cn(Cc4ccccc4)cn2)CO3)CC1` [US20240270732, Compound I-61] it is 8.43 nM. `CN1C(=O)[C@@H](NC(=O)c2cn(Cc3ccccc3)cn2)COc2ccc(C#CCN3CCN(CC#Cc4ccc5c(c4)N(C)C(=O)[C@@H](NC(=O)c4cn(Cc6ccccc6)cn4)CO5)CC3)cc21` [US20240270732, Compound I-62] yielded an IC50 of 8.07 nM. To `C#CCN1CCN(CC#Cc2ccc3c(c2)N(C)C(=O)[C@@H](NC(=O)c2cn(Cc4ccccc4)cn2)[C@H](C)O3)CC1` [US20240270732, Compound I-63] belongs 59.2 nM; to `C[C@@H]1Oc2ccc(C#CCN3CCN(CC#Cc4ccc5c(c4)N(C)C(=O)[C@@H](NC(=O)c4cn(Cc6ccccc6)cn4)[C@H](C)O5)CC3)cc2N(C)C(=O)[C@H]1NC(=O)c1cn(Cc2ccccc2)cn1` [US20240270732, Compound I-64], 62.2 nM; to `C#CCN1CCN(CC#Cc2ccc3c(c2)N(C)C(=O)[C@@H](NC(=O)c2n[nH]c(Cc4ccncc4)n2)[C@@H](C)O3)CC1` [US20240270732, Compound I-65], 20.7 nM. To `C[C@H]1Oc2ccc(C#CCN3CCN(CC#Cc4ccc5c(c4)N(C)C(=O)[C@@H](NC(=O)c4n[nH]c(Cc6ccncc6)n4)[C@@H](C)O5)CC3)cc2N(C)C(=O)[C@H]1NC(=O)c1n[nH]c(Cc2ccncc2)n1` [US20240270732, Compound I-66] belongs 18.8 nM. `C#CCN1CCN(CC#Cc2ccc3c(c2)N(C)C(=O)[C@@H](NC(=O)c2n[nH]c(Cc4cccnc4)n2)[C@@H](C)O3)CC1` [US20240270732, Compound I-67] gave a half-inhibitory concentration (IC50) of 14.6 nM. The figure for `C[C@H]1Oc2ccc(C#CCN3CCN(CC#Cc4ccc5c(c4)N(C)C(=O)[C@@H](NC(=O)c4n[nH]c(Cc6cccnc6)n4)[C@@H](C)O5)CC3)cc2N(C)C(=O)[C@H]1NC(=O)c1n[nH]c(Cc2cccnc2)n1` [US20240270732, Compound I-68] is 16 nM. The figure for `C#CCN1CCN(CC#Cc2ccc3c(c2)N(C)C(=O)[C@@H](NC(=O)c2n[nH]c(Cc4cccc(O)c4)n2)[C@@H](C)O3)CC1` [US20240270732, Compound I-69] is 19.4 nM; for `C[C@H]1Oc2ccc(C#CCN3CCN(CC#Cc4ccc5c(c4)N(C)C(=O)[C@@H](NC(=O)c4n[nH]c(Cc6cccc(O)c6)n4)[C@@H](C)O5)CC3)cc2N(C)C(=O)[C@H]1NC(=O)c1n[nH]c(Cc2cccc(O)c2)n1` [US20240270732, Compound I-70] it is 18.2 nM; for `C#CCN1CCN(CC#Cc2ccc3c(c2)N(C)C(=O)[C@@H](NC(=O)c2n[nH]c(Cc4cccc(N)c4)n2)[C@@H](C)O3)CC1` [US20240270732, Compound I-71] it is 23.9 nM. To `C[C@H]1Oc2ccc(C#CCN3CCN(CC#Cc4ccc5c(c4)N(C)C(=O)[C@@H](NC(=O)c4n[nH]c(Cc6cccc(N)c6)n4)[C@@H](C)O5)CC3)cc2N(C)C(=O)[C@H]1NC(=O)c1n[nH]c(Cc2cccc(N)c2)n1` [US20240270732, Compound I-72] belongs 22.1 nM; to `C#CCN1CCN(CC#Cc2ccc3c(c2)N(C)C(=O)[C@@H](NC(=O)c2ncn(Cc4cccnc4)n2)[C@@H](C)O3)CC1` [US20240270732, Compound I-73], 19.1 nM; to `C[C@H]1Oc2ccc(C#CCN3CCN(CC#Cc4ccc5c(c4)N(C)C(=O)[C@@H](NC(=O)c4ncn(Cc6cccnc6)n4)[C@@H](C)O5)CC3)cc2N(C)C(=O)[C@H]1NC(=O)c1ncn(Cc2cccnc2)n1` [US20240270732, Compound I-74], 17.5 nM.
